From EP4603105A1, “PHARMACEUTICAL COMPOSITION CONTAINING CYCLIC COMPOUND HAVING SELECTIVE KRAS INHIBITORY EFFECT AGAINST HRAS AND NRAS” (CHUGAI SEIYAKU KABUSHIKI KAISHA, priority 2022, dated 2024)
Where two headings read alike, the source gives them in different places. *1 amine or outer side, *2 acyl side, *3 side chain or, on linkers, in order; H or OH if unused. Where a SMILES comes first, the peptide text is derived from it. Bridges are numbered along the chain shown (N, C = ends). [ ]: non-standard residue; d: D form. The star is where a group is joined. hPhe(3-Cl-4-CF3) = N[C@@H](CCc1ccc(C(F)(F)F)c(Cl)c1)C(=O)O; NPrPhe(4-CF3) = CCCN[C@@H](Cc1ccc(C(F)(F)F)cc1)C(=O)O; NPrAsp = CCCN([C@@H](CC(=O)[*:3])C(=O)[*:2])[*:1]; X26 = CCCN([C@@H](Cc1ccc(F)cc1)C(=O)[*:2])[*:1]; NMeGly(cPent) = CN[C@H](C(=O)O)C1CCCC1; Pro(4,4-F2) = O=C(O)[C@@H]1CC(F)(F)CN1; Hyp = O=C(O)[C@@H]1C[C@@H](O)CN1; NMeD = CN[C@@H](CC(=O)O)C(=O)O; NMeL = CN[C@@H](CC(C)C)C(=O)O; NMeNva = CCC[C@H](NC)C(=O)O; Morpholide = C1CN(*)CCO1; NAllylGly = C=CCNCC(=O)O; NMeA = CN[C@@H](C)C(=O)O; Ac5c = NC1(C(=O)O)CCCC1; Aze = O=C(O)[C@@H]1CCN1; Ac4c = NC1(C(=O)O)CCC1; Sar = CNCC(=O)O

Key:
[1] = molecular target: GDP-bound NRAS wild-type protein (Homo sapiens, UniProt P01111); test: Binding to NRAS by surface plasmon resonance (SPR), KD and KD ratio to KRAS
Outline: (§1)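 Affinity is measured by surface plasmon resonance at 30°C against captured, GDP-loaded RAS carrying a biotinylated Avi tag. Compounds are titrated by single-cycle kinetics, and KD comes from a 1:1 fit.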

[2] = molecular target: HRAS wild-type protein (Homo sapiens, UniProt P01112); test: Binding to HRAS by surface plasmon resonance (SPR), KD and KD ratio to KRAS
Outline: as §1

[3] = system: human lung cancer strain NCI-H441; type: cell-based
Outline: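 Readout: […] after the ATP-based reagent. Compound: serial dilutions in dimethyl sulfoxide.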

[4] = ratio of KD for GDP-bound NRAS wild-type protein to KD for KRAS
[5] = ratio of KD for HRAS wild-type protein to KD for KRAS
[6] = ratio of the KD value with respect to GDP-bound NRAS wild-type protein to the KD value with respect to KRAS
[7] = ratio of the KD value with respect to HRAS wild-type protein to the KD value with respect to KRAS
[8] = ratio of KD value for GDP-bound NRAS wild-type protein to KD value for KRAS (SPR)
[9] = ratio of KD value for HRAS wild-type protein to KD value for KRAS (SPR)

Sequence of GDP-bound NRAS wild-type protein (P01111 whole entry): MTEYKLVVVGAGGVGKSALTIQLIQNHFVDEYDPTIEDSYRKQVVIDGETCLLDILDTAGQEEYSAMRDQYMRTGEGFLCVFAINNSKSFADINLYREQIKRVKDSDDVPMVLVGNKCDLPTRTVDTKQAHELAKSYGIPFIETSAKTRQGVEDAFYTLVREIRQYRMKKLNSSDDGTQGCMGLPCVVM
Sequence of HRAS wild-type protein (P01112 whole entry): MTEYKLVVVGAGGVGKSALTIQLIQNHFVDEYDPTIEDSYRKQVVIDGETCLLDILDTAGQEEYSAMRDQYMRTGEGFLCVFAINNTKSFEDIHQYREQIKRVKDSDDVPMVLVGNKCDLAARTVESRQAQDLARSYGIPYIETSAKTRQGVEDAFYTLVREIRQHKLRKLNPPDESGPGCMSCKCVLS

| SMILES | IC50 [3] | NRAS /KRAS [1, 4] | HRAS /KRAS [2, 5] | NRAS /KRAS [1, 6] | HRAS /KRAS [2, 7] | NRAS /KRAS [1, 8] | HRAS /KRAS [2, 9] | IC50 ([3]; NCI-H441 cells, 4 days, CellTiter-Glo, read-out: NCl-H441 IC50) |
| --- | --- | --- | --- | --- | --- | --- | --- | --- |
| CCC[C@H]1C(=O)N[C@@H]([C@@H](C)CC)C(=O)N2CCC[C@H]2C(=O)N(C)[C@H]2C/C=C\CCN(C2=O)[C@@H](Cc2ccc(C(F)(F)F)cc2)C(=O)N(C)CC(=O)N[C@@H](CCc2cc(F)c(C(F)(F)F)c(F)c2)C(=O)N2C[C@H](OCC)C[C@H]2C(=O)N(C)C2(CCC2)C(=O)N(C)[C@@H](C2CCCC2)C(=O)N(C)[C@H](C(=O)N2CCCCC2)CC(=O)N1C [PP3114] | 14.7 nM | AA (a compound having 20 or more is denoted as AA) | A (a compound having 10 or more and less than 20 is denoted as A) |  |  |  |  |  |
| CCC[C@H]1C(=O)N[C@@H]([C@@H](C)CC)C(=O)N(C)CC(=O)N(C)CC(=O)N(CCC)[C@@H](Cc2ccc(C(F)(F)F)cc2)C(=O)N(C)CC(=O)N[C@@H](CCc2ccc(C(F)(F)F)c(Cl)c2)C(=O)N2CCC[C@H]2C(=O)NC2(CCC2)C(=O)N(C)[C@@H](C2CCCC2)C(=O)N(CCC)[C@H](C(=O)N2CCOCC2)CC(=O)N1C [PP1954] ([NMeNva]I[Sar][Sar][NPrPhe(4-CF3)][Sar][hPhe(3-Cl-4-CF3)]P[Ac4c][NMeGly(cPent)][NPrAsp]-Morpholide; lactam N-11) | 8.1 nM |  |  | B (a compound having 3 or more and less than 10 is denoted as B) | B (a compound having 3 or more and less than 10 is denoted as B) |  |  |  |
| CCC[C@H]1C(=O)N[C@@H]([C@@H](C)CC)C(=O)N(C)CC(=O)N(C)[C@H]2C/C=C\CCN(C2=O)[C@@H](CC2CCCCC2)C(=O)N(C)CC(=O)N[C@@H](CCc2ccc(C(F)(F)F)c(OC)c2)C(=O)N2C[C@H](OCC)C[C@H]2C(=O)N(C)C2(CCC2)C(=O)N(C)[C@@H](C2CCCC2)C(=O)N(C)[C@H](C(=O)N(C)C)CC(=O)N1C [PP2336] | 16.3 nM |  |  | A (a compound having 10 or more and less than 20 is denoted as A) | A (a compound having 10 or more and less than 20 is denoted as A) |  |  |  |
| CCCN1C(=O)[C@@H]2CCN2C(=O)[C@H](C)N(C)C(=O)[C@H]([C@@H](C)CC)NC(=O)[C@H](CC(C)C)N(C)C(=O)C[C@@H](C(=O)N2CCOCC2)N(C)C(=O)[C@H](C2CCCC2)N(C)C(=O)C2(CCCC2)NC(=O)[C@@H]2CCCN2C(=O)[C@H](CCc2ccc(C(F)(F)F)c(Cl)c2)NC(=O)CN(C)C(=O)[C@@H]1Cc1ccc(F)cc1 [PP0219] ([NMeL]I[NMeA][Aze][X26][Sar][hPhe(3-Cl-4-CF3)]P[Ac5c][NMeGly(cPent)][NMeD]-Morpholide; lactam N-11) | 2.2 nM | C (A compound having a KD ratio of 0.1 or more and less than 3 is denoted as C) | B (a compound having 3 or more and less than 10 is denoted as B) |  |  |  |  |  |
| C=CCN1CC(=O)N(C)CC(=O)N(CCC)[C@@H](Cc2ccc(C(F)(F)F)cc2)C(=O)N(C)CC(=O)N[C@@H](CCc2ccc(C(F)(F)F)c(Cl)c2)C(=O)N2CCC[C@H]2C(=O)NC2(CCCC2)C(=O)N(C)[C@@H](C2CCCC2)C(=O)N(C)[C@H](C(=O)N2CCOCC2)CC(=O)N(C)[C@@H](CC(C)C)C(=O)N[C@@H]([C@@H](C)CC)C1=O [PP0749] ([NMeL]I[NAllylGly][Sar][NPrPhe(4-CF3)][Sar][hPhe(3-Cl-4-CF3)]P[Ac5c][NMeGly(cPent)][NMeD]-Morpholide; lactam N-11) | 19.8 nM |  |  | B (a compound having 3 or more and less than 10 is denoted as B) | C (A compound having a KD ratio of 0.1 or more and less than 3 is denoted as C) |  |  |  |
| CCCN1C(=O)CN(C)C(=O)CNC(=O)[C@H]([C@@H](C)CC)NC(=O)[C@H](CC(C)C)N(C)C(=O)C[C@@H](C(=O)N2CCOCC2)N(C)C(=O)[C@H](C2CCCC2)N(C)C(=O)C2(CCCC2)NC(=O)[C@@H]2CC(F)(F)CN2C(=O)[C@H](CCc2ccc(C(F)(F)F)c(Cl)c2)NC(=O)CN(C)C(=O)[C@@H]1Cc1ccc(C(F)(F)F)cc1 [PP0394] ([NMeL]IG[Sar][NPrPhe(4-CF3)][Sar][hPhe(3-Cl-4-CF3)][Pro(4,4-F2)][Ac5c][NMeGly(cPent)][NMeD]-Morpholide; lactam N-11) | 2.6 nM |  |  | C (A compound having a KD ratio of 0.1 or more and less than 3 is denoted as C) | C (A compound having a KD ratio of 0.1 or more and less than 3 is denoted as C) |  |  |  |
| CCCN1C(=O)CN(C)C(=O)CNC(=O)[C@H]([C@@H](C)CC)NC(=O)[C@H](CC(C)C)N(C)C(=O)C[C@@H](C(=O)N2CCOCC2)NC(=O)[C@H](C2CCCC2)N(C)C(=O)C2(CCC2)NC(=O)[C@@H]2C[C@@H](OCC)CN2C(=O)[C@H](CCc2ccc(C(F)(F)F)c(Cl)c2)NC(=O)CN(C)C(=O)[C@@H]1Cc1ccc(C(F)(F)F)cc1 [PP0330] ([NMeL]IG[Sar][NPrPhe(4-CF3)][Sar][hPhe(3-Cl-4-CF3)][Hyp](Et)[Ac4c][NMeGly(cPent)]D-Morpholide; lactam N-11) | 98.2 nM | B (a compound having 3 or more and less than 10 is denoted as B) | C (A compound having a KD ratio of 0.1 or more and less than 3 is denoted as C) |  |  |  |  |  |
| CCC(CC)[C@H]1C(=O)N(C)[C@H](C(=O)N(C)C)CC(=O)N(C)[C@@H](COC)C(=O)N[C@@H]([C@@H](C)CC)C(=O)N(C)CC(=O)N(C)[C@H]2C/C=C\CCN(C2=O)[C@@H](Cc2ccc(C(F)(F)F)cc2)C(=O)N(C)CC(=O)N[C@@H](CCc2ccc(C(F)(F)F)c(Cl)c2)C(=O)N2CC3(CC3)C[C@H]2C(=O)NC2(CC(C)(C)C2)C(=O)N1C [PP2965] | 27.1 nM | AA (a compound having 20 or more is denoted as AA) | A (a compound having 10 or more and less than 20 is denoted as A) |  |  |  |  |  |
| CCOC[C@H]1C(=O)N[C@@H]([C@@H](C)CC)C(=O)N(C)CC(=O)N(C)[C@H]2C/C=C\CCN(C2=O)[C@@H](Cc2ccc(OC)cc2)C(=O)N(C)CC(=O)N[C@@H](CCc2ccc(C(F)(F)F)c(OC)c2)C(=O)N2C[C@@H](C)C[C@H]2C(=O)NC2(CC(C)(C)C2)C(=O)N(C)[C@@H](C2CCCC2)C(=O)N(C)[C@H](C(=O)N(C)CC)CC(=O)N1C [PP2702] |  | A (a compound having 10 or more and less than 20 is denoted as A) | B (a compound having 3 or more and less than 10 is denoted as B) |  |  |  |  | 21.4 nM |

Second part, led by results:

| IC50 [3] | SMILES | NRAS /KRAS [1, 4] | HRAS /KRAS [2, 5] | NRAS /KRAS [1, 6] | HRAS /KRAS [2, 7] | NRAS /KRAS [1, 8] | HRAS /KRAS [2, 9] | IC50 ([3]; NCI-H441 cells, 4 days, CellTiter-Glo, read-out: NCl-H441 IC50) |
| --- | --- | --- | --- | --- | --- | --- | --- | --- |
| 17.7 nM | CCO[C@@H]1C[C@H]2C(=O)NC3(CCC3)C(=O)N(C)[C@@H](C3CCCC3)C(=O)N(C)[C@H](C(=O)N(C)C)CC(=O)N(C)[C@@H](CC3CCCC3)C(=O)N[C@@H]([C@@H](C)CC)C(=O)N(C)CC(=O)N(C)[C@H]3C/C=C\CCN(C3=O)[C@@H](Cc3ccc(C)cc3)C(=O)N(C)CC(=O)N[C@@H](CCc3cc(Cl)c(C(F)(F)F)c(Cl)c3)C(=O)N2C1 [PP2679] | A (a compound having 10 or more and less than 20 is denoted as A) | A (a compound having 10 or more and less than 20 is denoted as A) |  |  |  |  |  |
| 64.8 nM | C#CC[C@H]1C(=O)N[C@@H]([C@@H](C)CC)C(=O)N(C)CC(=O)N(C)[C@H]2C/C=C\CCN(C2=O)[C@@H](Cc2ccc(C(F)(F)F)cc2)C(=O)N(C)CC(=O)N[C@@H](CCc2ccc(C(F)(F)F)c(OC)c2)C(=O)N2CC[C@H]2C(=O)NC2(CCC2)C(=O)N(C)[C@@H](C2CCCC2)C(=O)N(C)[C@H](C(=O)N(C)C)CC(=O)N1C [PP2911] | A (a compound having 10 or more and less than 20 is denoted as A) | B (a compound having 3 or more and less than 10 is denoted as B) |  |  |  |  |  |
| 2.1 nM | CCO[C@@H]1C[C@H]2C(=O)NC3(CC(C)(C)C3)C(=O)N(C)[C@@H](C3CCCC3)C(=O)N(C)[C@H](C(=O)N(C)CC)CC(=O)N(C)[C@@H](CC3CC3)C(=O)N[C@@H]([C@@H](C)CC)C(=O)N(C)CC(=O)N(C)[C@H]3C/C=C\CCN(C3=O)[C@@H](Cc3ccc(C(F)(F)F)cc3)C(=O)N(C)CC(=O)N[C@@H](CCc3cc(F)c(C(F)(F)F)c(F)c3)C(=O)N2C1 [PP1648] |  |  |  |  | A (a compound having 10 or more and less than 20 is denoted as A) | A (a compound having 10 or more and less than 20 is denoted as A) |  |
| 11.1 nM | CCCOC[C@H]1C(=O)N[C@@H]([C@@H](C)CC)C(=O)N(C)CC(=O)N(C)[C@H]2C/C=C\CCN(C2=O)[C@@H](Cc2ccc(C(F)(F)F)cc2)C(=O)N(C)CC(=O)N[C@@H](CCc2cc(F)c(C(F)(F)F)c(F)c2)C(=O)N2C[C@H](OCC)C[C@H]2C(=O)NC2(CC(C)(C)C2)C(=O)N(C)[C@@H](C2CCCC2)C(=O)N(C)[C@H](C(=O)N(CC)CC)CC(=O)N1C [PP1575] |  |  |  |  | B (a compound having 3 or more and less than 10 is denoted as B) | B (a compound having 3 or more and less than 10 is denoted as B) |  |
| 1.8 nM | CCO[C@@H]1C[C@H]2C(=O)NC3(CCC3)C(=O)N(C)[C@@H](C3CCCC3)C(=O)N(C)[C@H](C(=O)N(C)C)CC(=O)N(C)[C@@H](CC(C)C)C(=O)N[C@@H]([C@@H](C)CC)C(=O)N(C)CC(=O)N(C)[C@H]3CCCCN(C3=O)[C@@H](Cc3ccc(C(F)(F)F)cc3)C(=O)N(C)CC(=O)N[C@@H](CCc3cc(F)c(C(F)(F)F)c(F)c3)C(=O)N2C1 [PP0580] |  |  | C (A compound having a KD ratio of 0.1 or more and less than 3 is denoted as C) | C (A compound having a KD ratio of 0.1 or more and less than 3 is denoted as C) |  |  |  |
